This note sets out measurements from patent publication US5593970A, “Heterocyclic anthracycline analogs” (priority 1994, dated 1997).

Where a name gives a salt, the structure may show the parent alone.

One test deals with LOX. Nature of the test: Microculture tetrazolium assay. The settings on record: read-out: IC50. It is filed as cell-based.
The next test has as its system LL. Nature of the test: Soft agar colony formation disk diffusion assay. It counts as cell-based, murine. The source says: (§1) A more elaborate version of this fundamental assay, the soft agar colony formation disk diffusion assay was used. This assay defines the relative activity of one particular drug versus a tumoral cell line type. The effect of the test drug against tumoral cells could be measured by its inhibitory capacity against colony formation after the delivery of the compound, in different concentrations on an filter disk(4). A modified technique of this assay was used in order to investigate the antiproliferative activity of candidate compounds. Tumoral cells from solid tumors and ascitic lines were plated separately in a two layer agar matrix. Cell lines to be tested were suspended in an upper layer of 0.4% Noble agar (Difco#00142-01) in RPMI-1066 (Gibco#3201875) at a yield varying between 10^4 to 2×10^5 cells per 60 mm Petri dish. Plating efficiency was determined for each line in order to achieve an optimal number of colonies per dish. Plates were examined before drug administration to confirm a uniform dispersion of single cells. The bottom layer consisted of 0.8% Noble agar, 0.8% Tryptic Soy Broth (difco#0037001)in CMRL-1066/Fischer's. The bottom layers were used within 2 and 9 days of preparation. Plated dishes (bottom layer of agar, upper layer of cells and administered drug were incubated in humidified atmosphere at 37° C., 5% CO2 for 10-20 days depending upon the time necessary to observe adequate colonies (defined as a cell aggregate of more than 50 cells) both control and drug inhibited. Drugs were administered on a paper filter disk (Whatman No. 1) of 6.5 mm diameter placed on the upper layer at 1/3 distance from the edge of the dish. The anti-clonogenic activity of the compounds was measured as the zone of inhibition from the disk edge to the most proximal colonies. This zone of inhibition was checked on an inverted microscope (40×) and was measured with a micrometer mounted in the eyepiece. The ocular micrometer was calibrated with a stage micrometer set for a particular combination of ocular and objective lenses. […] We made a modification of the initial technique by not plating a solid tumor and a leukemia simultaneously in the same Petri dish. Anti-clonogenic tests performed on leukemia cell line have helped in the discovery of the majority of current clinically used cytostatic drugs. Our tests on solid tumor lines (animal or human) may help define active compounds with solid tumor specificity. […] Murine tumors were maintained IN VIVO in order to diminish the selection of subpopulations of cells normally present in the heterogenous IN VIVO tumor. The actual drug sensitivity assay was done IN VITRO. For these experiments cells from freshly excised tumors or from ascitic fluids were maintained in RPMI-1066. Both compounds were dissolved in DMSO (1 mg/100 ul) and brought to final volume (250 ul) with Millipore deionized sterile water. Further dilutions were made with […] volume of 25 ul of freshly prepared solution was placed on the filter disk and allowed to dry.
Background: In agar diffusion tests the substance spreads into inoculated agar from a disc or well.

The test system of another test is P388. Nature of the test: Soft agar colony formation disk diffusion assay. It counts as cell-based, murine.
Excerpt: as §1

Another test concerns B16. The experiment in a line: Soft agar colony formation disk diffusion assay. It counts as cell-based, murine.
Excerpt: as §1

The next test relates to M5076. The experiment in a line: Soft agar colony formation disk diffusion assay. It is filed as cell-based, murine.
Excerpt: as §1

A further test has as its system P388/ADR. Nature of the test: Soft agar colony formation disk diffusion assay. It is filed as cell-based, murine.
Excerpt: as §1

The test system of the next test is MCF7. The experiment in a line: Soft agar colony formation disk diffusion assay. It counts as cell-based, human. An outline of the steps: (§2)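 Cells were suspended at 10^4 to 2×10^5 per dish in 0.4% Noble agar in RPMI-1066 over a 0.8% agar/Tryptic Soy Broth bottom layer. Compound in DMSO/water was dried onto a 6.5 mm paper disk placed on the upper layer. Read-out was the zone of inhibition from disk edge to nearest colonies (>50 cells), measured by ocular micrometer.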

The test system of a further test is MCF7/ADR. The experiment in a line: Soft agar colony formation disk diffusion assay. It counts as cell-based, human. The method in brief:
as §2

A further test relates to LS180. The experiment in a line: Soft agar colony formation disk diffusion assay. It is filed as cell-based, human. An outline of the steps:
as §2

Usually IC50 stands for the concentration that gives 50% inhibition. Consider “3-(2-hydroxy)aceto-6-hydroxy-1,2,3,4-tetrahydro-(2-oxygen)naphthacene-5,12-dione and 3-(2-hydroxy)aceto-11-hydroxy-1,2,3,4-tetrahydro-(2-oxygen)naphthacene-5,12-dione [BCH-694]”, for which the IC50 in the test on LOX stood at 15 µM. Besides, the zone of inhibition is listed as 30.5 ± 8.6 Zone Units in the test with LL (100 μg/DISK); 67.1 ± 8.6 Zone Units in the test on P388 (10 μg/DISK); 115.9 ± 94.8 Zone Units in the test with P388 (100 μg/DISK); 0 Zone Units in the test with B16 (10 μg/DISK); 128.0 ± 26.0 Zone Units in the test with B16 (100 μg/DISK); 27.4 ± 4.3 Zone Units in the test on M5076 (10 μg/DISK). Further, the zone of inhibition in the test on M5076 (100 μg/DISK) is 137.2 ± 99.2 Zone Units; in the test with P388/ADR (10 μg/DISK) it was 6.1 ± 8.6 Zone Units; in the test on P388/ADR (100 μg/DISK), 39.6 ± 12.9 Zone Units; in the test with MCF7 (10 μg/DISK), 61.0 ± 0.0 Zone Units; in the test on MCF7 (100 μg/DISK), 149.4 ± 12.9 Zone Units; in the test with MCF7/ADR (10 μg/DISK), 0 Zone Units. The zone of inhibition with MCF7/ADR (100 μg/DISK) came out at 161.5 ± 13.4 Zone Units; in the test with LS180 (10 μg/DISK) it was 48.8 ± 17.2 Zone Units; in the test on LS180 (100 μg/DISK), 153.2 ± 1.0 Zone Units.

As to “3-carbomethoxy-6-hydroxy-1,2,3,4-tetrahydro-(2-sulfur)naphthacene-5,12-dione and 3-carbomethoxy-11-hydroxy-1,2,3,4-tetrahydro(2-sulfur)naphthacene-5,12-dione [BCH-693]”, the IC50 in the test on LOX worked out at 48 µM. The zone of inhibition worked out at 45.7 ± 21.5 Zone Units in the test on LL (100 μg/DISK); 120.0 ± 0.0 Zone Units in the test with P388 (10 μg/DISK); 400.0 Zone Units with P388 (100 μg/DISK); 0 Zone Units in the test with B16 (10 μg/DISK); 27.4 ± 4.3 Zone Units in the test on B16 (100 μg/DISK); 27.4 ± 4.3 Zone Units with M5076 (10 μg/DISK). Further, the zone of inhibition with M5076 (100 μg/DISK) was 51.8 ± 12.9 Zone Units; in the test on P388/ADR (10 μg/DISK), 20.0 ± 0.0 Zone Units; with P388/ADR (100 μg/DISK), 76.5 ± 21.9 Zone Units; in the test with MCF7 (10 μg/DISK), 0 Zone Units; in the test on MCF7 (100 μg/DISK), 67.1 ± 34.5 Zone Units; with MCF7/ADR (10 μg/DISK) it was 24.4 ± 17.2 Zone Units. Moreover, the zone of inhibition in the test with MCF7/ADR (100 μg/DISK) stood at 67.1 ± 25.8 Zone Units; in the test on LS180 (10 μg/DISK), 0 Zone Units; in the test on LS180 (100 μg/DISK), 39.6 ± 4.3 Zone Units.

As for `CCOC(=O)[C@@H]1CC2=C(C(=O)c3c(c(O)c4ccccc4c3OC(C)=O)C2=O)[C@@H](O)O1` (mixture of isomers) [BCH-658, (1S,3S) and (1R,3R) Ethyl[11-acetoxy-1,6-dihydroxy-5,12-dioxo-3,4,5,12-tetrahydroanthraceno (2,3-c)pyran-3-yl]formate], the IC50 in the test on LOX came out at 66.2 µM. The zone of inhibition was found to be 51.9 ± 21.5 Zone Units in the test on LL (100 μg/DISK); 42.7 ± 17.2 Zone Units with P388 (10 μg/DISK); 61.0 ± 0.0 Zone Units in the test on P388 (100 μg/DISK); 0 Zone Units in the test with B16 (10 μg/DISK); 0 Zone Units in the test on B16 (100 μg/DISK); 26.6 ± 13.6 Zone Units in the test on M5076 (10 μg/DISK). For the same compound, the zone of inhibition in the test on M5076 (100 μg/DISK) was 76.2 ± 21.5 Zone Units; in the test with P388/ADR (10 μg/DISK) it was 18.3 ± 8.6 Zone Units; in the test with P388/ADR (100 μg/DISK) it was 51.3 ± 20.7 Zone Units; in the test with MCF7 (10 μg/DISK), 0 Zone Units; in the test on MCF7/ADR (10 μg/DISK) it was 0 Zone Units; with MCF7/ADR (100 μg/DISK) it was 0 Zone Units. The zone of inhibition with LS180 (10 μg/DISK) amounted to 48.8 ± 34.5 Zone Units; with LS180 (100 μg/DISK), 164.7 ± 25.8 Zone Units.

For the compound `COC(=O)[C@@H]1CC2=C(C(=O)c3c(c(OC)c4ccccc4c3O)C2=O)[C@@H](O[C@H]2C[C@H](NC(=O)C(F)(F)F)[C@H](O)[C@H](C)O2)O1` (mixture of isomers) [BCH-674, (1'S,1S,3R) and 1'S,1R,3S) Methyl(11-hydroxy-6-methoxy-1-[2',3',6'-trideoxy-3-trifluoroacetamido-4'-hydroxy-L-lyxohexopyranose]-5,12-dioxo-3,4,5,12-tetrahydroanthra-ceno[2,3-c]pyran-3-yl) formate], the IC50 in the test with LOX amounted to 2.06 µM. The zone of inhibition with LL (10 μg/DISK) came to 54.9 ± 8.6 Zone Units; in the test on LL (100 μg/DISK), 115.9 ± 8.0 Zone Units; in the test with P388 (10 μg/DISK), 30.5 ± 25.8 Zone Units; with P388 (100 μg/DISK), 137.2 ± 38.8 Zone Units; in the test on B16 (10 μg/DISK), 91.5 ± 60.3 Zone Units; with B16 (100 μg/DISK), 122.0 ± 86.2 Zone Units. Moreover, the zone of inhibition in the test with P388/ADR (10 μg/DISK) stood at 0 Zone Units; with P388/ADR (100 μg/DISK) it was 150.0 ± 8.0 Zone Units; with MCF7 (10 μg/DISK), 0 Zone Units; with MCF7 (100 μg/DISK), 76.2 ± 21.6 Zone Units; in the test on MCF7/ADR (10 μg/DISK), 0 Zone Units; in the test with MCF7/ADR (100 μg/DISK), 339.6 ± 4.3 Zone Units. The zone of inhibition in the test with LS180 (10 μg/DISK) was found to be 0 Zone Units; in the test with LS180 (100 μg/DISK), 67.1 ± 8.6 Zone Units.

With `CCOC(=O)C1CC2=C(CO1)C(=O)c1cc3ccccc3c(O)c1C2=O` (stereo not drawn) [BCH-653, Ethyl(6 and 11 hydroxy-5,12-dioxo-3,4,5,12-tetrahydro-anthraceno[2,3-c]pyran-3-yl)]formate], the zone of inhibition is recorded as 18.3 ± 0.0 Zone Units in the test with LL (100 μg/DISK); 64.0 ± 4.2 Zone Units in the test on P388 (100 μg/DISK); 0 Zone Units in the test with B16 (100 μg/DISK); 85.4 ± 25.8 Zone Units in the test with M5076 (100 μg/DISK); 66.8 ± 8.2 Zone Units in the test on P388/ADR (100 μg/DISK); 106.1 ± 21.5 Zone Units in the test on MCF7 (100 μg/DISK). Also, the zone of inhibition with MCF7/ADR (100 μg/DISK) is on record as 91.5 ± 43.1 Zone Units; with LS180 (100 μg/DISK), 35.5 ± 0.7 Zone Units.

As for “Methyl(11-hydroxy-5,12-dioxo-3,4,5,12-tetrahydroanthraceno[2,3-c]pyran-3-yl)ketone and Methyl(5-hydroxy-5,12-dioxo-3,4,5,12-tetrahydroanthraceno[2,3-c]pyran-3-yl)ketone [BCH-687]”, the zone of inhibition amounted to 62.8 ± 30.7 Zone Units in the test with LL (10 μg/DISK); 182.6 ± 35.2 Zone Units with LL (100 μg/DISK); 81.3 ± 30.0 Zone Units with P388 (10 μg/DISK); 183.0 ± 81.0 Zone Units in the test with P388 (100 μg/DISK); 34.6 ± 3.6 Zone Units with B16 (10 μg/DISK); 70.1 ± 13.0 Zone Units with B16 (100 μg/DISK). The zone of inhibition in the test with M5076 (10 μg/DISK) worked out at 0 Zone Units; in the test on M5076 (100 μg/DISK), 410.8 ± 46.5 Zone Units; in the test on P388/ADR (10 μg/DISK), 0 Zone Units; with P388/ADR (100 μg/DISK), 153.6 ± 30.6 Zone Units; in the test with MCF7 (10 μg/DISK), 71.1 ± 9.3 Zone Units; in the test with MCF7 (100 μg/DISK), 152.5 ± 50.0 Zone Units. In addition, the zone of inhibition in the test on MCF7/ADR (10 μg/DISK) came out at 61.0 ± 6.1 Zone Units; with MCF7/ADR (100 μg/DISK), 140.0 ± 32.3 Zone Units; with LS180 (10 μg/DISK), 152.5 ± 30.5 Zone Units; in the test with LS180 (100 μg/DISK), 233.8 ± 17.6 Zone Units. Moreover, the “cross resistance with adriamycin, MCF7/ADR vs MCF7” value with MCF7/ADR was “lack of cross resistance with adriamycin”.
